Test results reported in the NIST ThermoML archive (doi:10.1021/je800925v).

Assay: xn = mol fraction of the nth substance listed
Conditions: Liquid

CCCCCCCC [octane] + CCO
Conditions | mass density [kg/m3] | viscosity [mPa·s]
273.15 K, x2 = 0.095 | 713.3 | 0.6185
273.15 K, x2 = 0.192 | 715.9 | 0.6401
273.15 K, x2 = 0.294 | 719.6 | 0.698
273.15 K, x2 = 0.399 | 725.5 | 0.7603
273.15 K, x2 = 0.496 | 732.2 | 0.8635
273.15 K, x2 = 0.602 | 740.1 | 0.9516
273.15 K, x2 = 0.691 | 752 | 1.103
273.15 K, x2 = 0.807 | 763.9 | 1.262
273.15 K, x2 = 0.911 | 781 | 1.459
275.65 K, x2 = 0.095 | 709.2 | 0.6003
275.65 K, x2 = 0.192 | 713.9 | 0.6206
275.65 K, x2 = 0.294 | 719.5 | 0.6743
275.65 K, x2 = 0.399 | 723.4 | 0.7329
275.65 K, x2 = 0.496 | 731.5 | 0.828
275.65 K, x2 = 0.602 | 738 | 0.9122
275.65 K, x2 = 0.691 | 749.9 | 1.054
275.65 K, x2 = 0.807 | 761.7 | 1.203
275.65 K, x2 = 0.911 | 778.9 | 1.389
278.15 K, x2 = 0.095 | 707.2 | 0.583
278.15 K, x2 = 0.192 | 711.8 | 0.6019
278.15 K, x2 = 0.294 | 717.2 | 0.652
278.15 K, x2 = 0.399 | 721.3 | 0.7069
278.15 K, x2 = 0.496 | 729.4 | 0.7951
278.15 K, x2 = 0.602 | 735.9 | 0.8751
278.15 K, x2 = 0.691 | 747.8 | 1.008
278.15 K, x2 = 0.807 | 759.7 | 1.148
278.15 K, x2 = 0.911 | 776.8 | 1.323
280.65 K, x2 = 0.095 | 705.1 | 0.5664
280.65 K, x2 = 0.192 | 708.5 | 0.5841
280.65 K, x2 = 0.294 | 714.8 | 0.6308
280.65 K, x2 = 0.399 | 719.2 | 0.6822
280.65 K, x2 = 0.496 | 725.2 | 0.7643
280.65 K, x2 = 0.602 | 733.8 | 0.8399
280.65 K, x2 = 0.691 | 745.7 | 0.9555
280.65 K, x2 = 0.807 | 757.6 | 1.097
280.65 K, x2 = 0.911 | 774.7 | 1.26
283.15 K, x2 = 0.095 | 703 | 0.5505
283.15 K, x2 = 0.192 | 706.4 | 0.5669
283.15 K, x2 = 0.294 | 712.5 | 0.6105
283.15 K, x2 = 0.399 | 717.1 | 0.6587
283.15 K, x2 = 0.496 | 723.1 | 0.7348
283.15 K, x2 = 0.602 | 731.7 | 0.8067
283.15 K, x2 = 0.691 | 743.6 | 0.9146
283.15 K, x2 = 0.807 | 755.4 | 1.047
283.15 K, x2 = 0.911 | 772.6 | 1.202
285.65 K, x2 = 0.095 | 701 | 0.5351
285.65 K, x2 = 0.192 | 704.3 | 0.5505
285.65 K, x2 = 0.294 | 710.2 | 0.5906
285.65 K, x2 = 0.399 | 715 | 0.6363
285.65 K, x2 = 0.496 | 723.1 | 0.707
285.65 K, x2 = 0.602 | 729.6 | 0.7758
285.65 K, x2 = 0.691 | 741.5 | 0.8763
285.65 K, x2 = 0.807 | 753.3 | 1.002
285.65 K, x2 = 0.911 | 770.5 | 1.147
288.15 K, x2 = 0.095 | 698.9 | 0.5207
288.15 K, x2 = 0.192 | 702.2 | 0.5347
288.15 K, x2 = 0.294 | 708.1 | 0.5721
288.15 K, x2 = 0.399 | 712.9 | 0.615
288.15 K, x2 = 0.496 | 721 | 0.6805
288.15 K, x2 = 0.602 | 727.5 | 0.7453
288.15 K, x2 = 0.691 | 739.4 | 0.8411
288.15 K, x2 = 0.807 | 751.2 | 0.958
288.15 K, x2 = 0.911 | 768.4 | 1.095
290.65 K, x2 = 0.095 | 696.8 | 0.5072
290.65 K, x2 = 0.192 | 700.1 | 0.5195
290.65 K, x2 = 0.294 | 705.9 | 0.5541
290.65 K, x2 = 0.399 | 710.8 | 0.5946
290.65 K, x2 = 0.496 | 718.9 | 0.6543
290.65 K, x2 = 0.602 | 725.3 | 0.7168
290.65 K, x2 = 0.691 | 737.2 | 0.8071
290.65 K, x2 = 0.807 | 749.1 | 0.9164
290.65 K, x2 = 0.911 | 766.3 | 1.046
293.15 K, x2 = 0 | 705.6 | 0.5374
293.15 K, x2 = 0.095 | 694.7 | 0.4931
293.15 K, x2 = 0.192 | 698 | 0.5049
293.15 K, x2 = 0.294 | 703.8 | 0.5366
293.15 K, x2 = 0.399 | 708.6 | 0.5752
293.15 K, x2 = 0.496 | 716.8 | 0.6298
293.15 K, x2 = 0.602 | 723.2 | 0.6899
293.15 K, x2 = 0.691 | 735.1 | 0.7742
293.15 K, x2 = 0.807 | 746.9 | 0.8781
293.15 K, x2 = 0.911 | 764.1 | 0.9997
295.65 K, x2 = 0.095 | 692.6 | 0.4796
295.65 K, x2 = 0.192 | 695.9 | 0.4908
295.65 K, x2 = 0.294 | 701.7 | 0.5197
295.65 K, x2 = 0.399 | 706.5 | 0.5566
295.65 K, x2 = 0.496 | 714.7 | 0.6039
295.65 K, x2 = 0.602 | 721.1 | 0.6643
295.65 K, x2 = 0.691 | 732.9 | 0.7428
295.65 K, x2 = 0.807 | 744.7 | 0.8415
295.65 K, x2 = 0.911 | 762 | 0.956
298.15 K, x2 = 0 | 701.6 | 0.5087
298.15 K, x2 = 0.095 | 690.5 | 0.4675
298.15 K, x2 = 0.192 | 693.8 | 0.477
298.15 K, x2 = 0.294 | 699.6 | 0.5022
298.15 K, x2 = 0.399 | 704.3 | 0.5386
298.15 K, x2 = 0.496 | 712.6 | 0.5828
298.15 K, x2 = 0.602 | 718.9 | 0.6396
298.15 K, x2 = 0.691 | 730.8 | 0.7137
298.15 K, x2 = 0.807 | 742.6 | 0.8061
298.15 K, x2 = 0.911 | 759.8 | 0.925
